Laboratory results from patent US10865194B2, “Therapeutically active bicyclic-sulphonamides and pharmaceutical compositions” (FONDAZIONE ISTITUTO ITALIANO DI TECNOLOGIA, priority 2017, dated 2020).

How the values were obtained:
human NAAA = molecular target: T1, human NAAA (Homo sapiens, UniProt Q02083); test: In vitro human NAAA fluorogenic assay; type: biochemical; settings: enzyme-enriched lysate of HEK-293 cells stably transfected with human NAAA; read-out: Activity h-NAAA Fluorogenic assay
T1 construct: expressed in transfected cells; host or cells: HEK-293 (stably transfected, G418 selection); enzyme-enriched lysate
T1 sequence (Q02083 126-359 limits assumed): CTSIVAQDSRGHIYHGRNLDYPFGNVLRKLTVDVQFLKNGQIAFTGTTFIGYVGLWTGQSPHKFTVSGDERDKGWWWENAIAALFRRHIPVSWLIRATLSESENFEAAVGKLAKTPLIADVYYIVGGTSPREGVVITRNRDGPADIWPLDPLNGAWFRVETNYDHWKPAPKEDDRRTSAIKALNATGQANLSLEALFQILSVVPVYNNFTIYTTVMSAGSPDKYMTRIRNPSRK
T1 sequence (Q02083 29-125 limits assumed): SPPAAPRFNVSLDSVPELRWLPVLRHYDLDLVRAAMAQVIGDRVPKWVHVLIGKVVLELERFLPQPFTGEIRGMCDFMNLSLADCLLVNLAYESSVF
Method: Human recombinant proteins were obtained from HEK-293 stable overexpressing NAAA cell lines. Cells were grown in Dulbecco's modified Eagle medium (DMEM) containing 10% FBS, 1% penicillin/streptomycin, 1% glutamine and 500 μg/mL G418. To obtain membrane preparation cells were scraped off with cold phosphate-buffered saline (PBS) and collected by centrifugation (300×g, 7 min, 4° C.). Cell pellet were stored at −80° C. until protein preparation.
In Vitro Human NAAA Assay
Preparation of Enzyme-Enriched Lysate (h-NAAA).
HEK-293 cells stably transfected with the human NAAA coding sequences were used as enzyme source. Cell pellets were suspended in 20 mM Tris HCl (pH 7.4) with 0.32 M sucrose, sonicated and centrifuged at 800×g for 30 min at 4° C. Supernatants were then ultracentrifuged at 12,000×g for 30 min at 4° C. Pellets were re-suspended in PBS buffer (pH 7.4) and subjected to three freeze-thaw cycles at −80° C. The suspension was finally ultracentrifuged at 105,000×g for 1 h at 4° C., supematants were collected, protein concentration was measured and samples aliquoted and stored at −80° C. until use.
The results are summarized in Table 3 as follows, wherein +: IC50>2 μM; ++: 1.0 μM<IC50<2 μM; +++: IC50<1 μM: […]

Neuro2A cells = test: Inhibition of ROS production in Neuro2A cells (H2O2-induced, DCFH-DA fluorescence); type: cell-based; settings: ROS induced with 0.2 mM H2O2
Method: The experiments carried out to evaluate the inhibition of ROS production using the compounds of the invention were based on the method reported by Danli W. and Patricia Yotnda in Production and Detection of Reactive Oxygen Species (ROS) in Cancers, J. Vis Exp. 2011; (57):3357.
Cultured brain Neuroblastoma2A (Neuro2A) were used.
15.000 Cells were plated in a 96 well plate with black walls and transparent flat bottom in 100 μL of DMEM complete medium (including 10% fetal bovine serum, […] L-Glutamine) containing compounds at indicated concentrations or 0.5% dimethylsulfoxide (DMSO), and kept overnight at 37° C. to allow them to attach to the plate. The following day the culture medium was removed, cells were washed with 100 μl of Phosphate Buffer Saline, pH 7.4 (PBS) and loaded with 100 μL of PBS containing 10 μM of dichloro-dihydro-fluorescein diacetate (DCFH-DA) and compounds at the indicated concentrations (or DMSO 0.5%) for additional 45 min at 37° C. DCFH-DA was prepared as a 20 mM stock in (DMSO) and kept in the dark at 4° C.
ROS production was induced by exposure with 0.2 mM H2O2 dissolved in 100 μl of complete DMEM medium without phenol red. Fluorescence intensity was measured at an […] wavelengths of 485/535 nm and ROS production was monitored for 2 h, at 37° C.

SMILES: Cc1n[nH]c(C)c1S(=O)(=O)N1C[C@H]2CCC[C@@H](C1)[C@@H]2Oc1cnccn1 [Example 52, (1R,5S,9s)-3-((3,5-Dimethyl-1H-pyrazol-4-yl)sulfonyl)-9-(pyrazin-2-yloxy)-3-azabicyclo[3.3.1]nonane]
- IC50 (human NAAA): < 1000 nM
- Inhibition of ROS production in neuro 2A cells, 5 μM (inhibition) (Neuro2A cells; compound 5 μM): 9%
- Inhibition of ROS production in neuro 2A cells, 10 μM (inhibition) (Neuro2A cells; compound 10 μM): 27%
